US8697727B2, “N-substituted-heterocycloalkyloxybenzamide compounds and methods of use” (Rigel Pharmaceuticals, Inc., priority 2006, dated 2014)

Legend:
Type in all cases: cell-based
AMPK [1] = test: AMPK activation, enzyme-linked immunosorbent assay
How it was run: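 AMPK activity in cells was measured by enzyme-linked immunosorbent assay as the relative concentration of phosphorylated acetyl-CoA carboxylase, which AMPK produces. From this, an EC50 for AMPK activation was determined for each compound. Ranges used: less than 1 μM, 1-10 μM, 10-20 μM, 20-50 μM, 50-100 μM, and >100 μM.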

AMPK [2] = test: Western blot assay for AMPK activity; details: gel electrophoresis data relative to GST-gAd (FIG. 3)
Method: Western blot assays for AMPK activity were performed on compounds 1, 2, 94 and 95. FIG. 3 presents gel electrophoresis data for compounds 1, 2, 94 and 95 relative to GST-gAd.

[3] = test system: Human liver cells (HepG2); test: Reduction of glycogen content in liver cells (Amplex Red); details: HepG2 cells treated for 16 hours, Amplex Red (FIG. 4)
Method: The ability of compounds of the present invention to reduce the glycogen content in liver cells was determined using a functional assay. Human liver cells (HepG2) were seeded in a 96 well plate and on the next day were treated with compounds 1, 2, 94 and 95 for 16 hours. The glycogen content of the cells was determined using Amplex Red.

Row | SMILES | EC50 (AMPK [1]) [µM] | IC50 value, glycogen content [3] | AMPK activity in the western blot assay (AMPK [2])
1 | COc1ccc(CN2CCC(Oc3ccc(C(=O)NC4CCN(Cc5ccccc5)CC4)cc3Cl)CC2)cc1 [Compound 1, N-(1-benzylpiperidin-4-yl)-3-chloro-4-(1-(4-methoxybenzyl)piperidin-4-yloxy)benzamide] | < 1 | sub-micromolar | strong activity
2 | COc1cc(C(=O)NC2CCN(Cc3ccccc3)CC2)ccc1OC1CCN(Cc2ccccc2)CC1 [Compound 2, N-(1-benzylpiperidin-4-yl)-4-(1-benzylpiperidin-4-yloxy)-3-methoxybenzamide] | < 1 | sub-micromolar | strong activity
3 | CC(C)(C)OC(=O)N1CCC(Oc2ccc(C(=O)NC3CCN(Cc4ccccc4)CC3)cc2Cl)CC1 [Compound 90, tert-butyl 4-(4-(1-benzylpiperidin-4-ylcarbamoyl)-2-chlorophenoxy)piperidine-1-carboxylate] | 1 to 10 | – | –
4 | O=C(NC1CCN(Cc2ccccc2)CC1)c1ccc(OC2CCNCC2)c(Cl)c1 [Compound 93, N-(1-benzylpiperidin-4-yl)-3-chloro-4-(piperidin-4-yloxy)benzamide] | > 100 | – | –
5 | COc1cc(C(=O)NCCCNC(=O)OC(C)(C)C)ccc1OC1CCN(Cc2ccc(C(F)(F)F)cc2)CC1 [Compound 94, tert-butyl 3-(3-methoxy-4-(1-(4-(trifluoromethyl)benzyl)piperidin-4-yloxy)benzamido)propylcarbamate] | < 1 | sub-micromolar | strong activity
6 | CC(C)(C)OC(=O)NCCCNC(=O)c1ccc(OC2CCN(Cc3ccc(C(F)(F)F)cc3)CC2)cc1 [Compound 95, tert-butyl 3-(4-(1-(4-(trifluoromethyl)benzyl)piperidin-4-yloxy)benzamido)propylcarbamate] | < 1 | sub-micromolar | strong activity
7 | COc1ccc(CN2CCC(Oc3ccc(C(=O)N4CCN(C(=O)OC(C)(C)C)CC4)cc3)CC2)cc1 [Compound 96, tert-butyl 4-(4-(1-(4-methoxybenzyl)piperidin-4-yloxy)benzoyl)piperazine-1-carboxylate] | 1 to 10 | – | –
8 | O=C(NCCCN1CCOCC1)c1ccc(OC2CCN(Cc3ccc(Cl)cc3)CC2)cc1 [Compound 100, 4-(1-(4-chlorobenzyl)piperidin-4-yloxy)-N-(3-morpholinopropyl)benzamide] | 1 to 10 | – | –
9 | COc1ccc(CN2CCC(Oc3ccc(C(=O)NCCCN4CCOCC4)cc3Cl)CC2)cc1 [Compound 101, 3-chloro-4-(1-(4-methoxybenzyl)piperidin-4-yloxy)-N-(3-morpholinopropyl)benzamide] | 10 to 20 | – | –
10 | O=C(c1ccc(OC2CCN(Cc3ccccc3)CC2)cc1)N1CCN(c2ccccc2)CC1 [Compound 103, (4-(1-benzylpiperidin-4-yloxy)phenyl)(4-phenylpiperazin-1-yl)methanone] | 20 to 50 | – | –
11 | Cc1ccc(CN2CCC(Oc3ccc(C(=O)NCCCN4CCOCC4)cc3)CC2)cc1 [Compound 104, 4-(1-(4-methylbenzyl)piperidin-4-yloxy)-N-(3-morpholinopropyl)benzamide] | 10 to 20 | – | –
12 | O=C(c1ccc(OC2CCN(Cc3ccccc3)CC2)cc1)N1CCN(Cc2ccccn2)CC1 [Compound 105, (4-(1-benzylpiperidin-4-yloxy)phenyl)(4-(pyridin-2-ylmethyl)piperazin-1-yl)methanone] | 10 to 20 | – | –

Further lines, with some results ahead:

Row | EC50 (AMPK [1]) [µM] | IC50 value, glycogen content [3] | SMILES | AMPK activity in the western blot assay (AMPK [2])
13 | < 1 | – | CC(C)(C)C(=O)N1CCC(Oc2ccc(C(=O)NC3CCN(Cc4ccccc4)CC3)cc2Cl)CC1 [Compound 91, N-(1-benzylpiperidin-4-yl)-3-chloro-4-(1-pivaloylpiperidin-4-yloxy)benzamide] | –
14 | 1 to 10 | – | CC(C)(C)OC(=O)N1CCC(Oc2ccc(C(=O)NC3CCN(Cc4ccccc4)CC3)cc2F)CC1 [Compound 92, tert-butyl 4-(4-(1-benzylpiperidin-4-ylcarbamoyl)-2-fluorophenoxy)piperidine-1-carboxylate] | –
15 | 1 to 10 | – | COc1ccc(CN2CCC(Oc3ccc(C(=O)NCCCNC(=O)OC(C)(C)C)cc3Cl)CC2)cc1 [Compound 97, tert-butyl 3-(3-chloro-4-(1-(4-methoxybenzyl)piperidin-4-yloxy)benzamido)propylcarbamate] | –
16 | 1 to 10 | – | COc1cc(C(=O)NCCCN2CCOCC2)ccc1OC1CCN(Cc2ccc(Cl)cc2)CC1 [Compound 98] | –
17 | 1 to 10 | – | CC(C)(C)OC(=O)N1CCN(C(=O)c2ccc(OC3CCN(Cc4ccccc4)CC3)cc2)CC1 [Compound 99, tert-butyl 4-(4-(1-benzylpiperidin-4-yloxy)benzoyl)piperazine-1-carboxylate] | –
18 | 10 to 20 | – | CC(C)(C)OC(=O)NCCCNC(=O)c1ccc(OC2CCN(Cc3ccccc3)CC2)c(Cl)c1 [Compound 102, tert-butyl 3-(4-(1-benzylpiperidin-4-yloxy)-3-chlorobenzamido)propylcarbamate] | –
